{
  "source": "paper PMC13289212",
  "about": "“HIVIL: A human in vitro inflammatory liver model recapitulates immune-associated drug effects with high predictivity” (NAM journal, 2025)",
  "key": {"[1]": {"assay": "AlamarBlue cell viability in HIVIL", "settings": "human", "experimental": "(§1) Stock solutions of drugs were prepared in dimethyl sulfoxide (DMSO) and dissolved in medium prior to use. […] For these two drugs, the highest DMSO concentration was 1 %. Supernatant was collected at 48 hr for measurement of cytokines, and remaining cells were subjected to viability assay prior to lysis for RNA extraction."}, "[2]": {"test_system": "HIVIL (iKCs co-cultured with iHeps)", "assay": "AlamarBlue cell viability in HIVIL", "experimental": "as §1"}, "IL-6 [3]": {"test_system": "IL-6", "assay": "IL-6 ELISA in iPSC(F4)-derived HIVIL", "format": "cell-based, human", "experimental": "(§2) Enzyme-linked immunosorbent assay (ELISA) for measurement of cytokines: Interleukin-6 (IL-6), interleukin-10 (IL-10) and tumor necrosis factor alpha (TNFα) levels in the media were measured using the corresponding human-based ELISA kits (Abcam, Cambridge, United Kingdom) according to manufacturer’s instructions. The cytokine production from dosed cells was normalized with the viability value from the same well. The normalized cytokine level upon drug treatments was further presented as percentage of DMSO+LPS. Normalization to viability per well ensures that any changes in cytokines are not due to changes in cell numbers upon drug treatment and normalization to DMSO+LPS allows better comparison between different batches of experiments. This normalization approach has been used in previous studies (Rose et al. 2016)."}, "[4]": {"settings": "FDA-labeling information; ref Chen et al. 2016; cited from earlier work"}, "[5]": {"assay": "Cell viability of iHeps mono-culture", "format": "cell-based", "settings": "human", "text": "(§3) Human iPSC cell line iPS (IMR90)-4 was purchased from WiCell Research Institute (Madison, WI), and maintained with a feeder-free method according to the instruction from […] Technologies (Vancouver, BC, Canada). The protocol of differentiation towards iKCs and iHeps as described previously with slight modification ([Tasnim et al., 2019]; [Cai et al., 2012]), respectively. The re-optimized protocol to generate iKCs is discussed in Results section. More details are provided in Supplementary Methods. After differentiation, iKCs was harvested using 0.05 % trypsin-EDTA (Gibco, Waltham, Massachusetts, USA), while iHeps were dissociated with TrypLE^TM (Gibco). iHep suspension was further filtered through a 40 µm cell strainer to remove extracellular matrix clumps. Cell suspension was centrifuged at 1000 rpm for 5 min. For co-culture set up, tissue culture plates were coated with Rat tail collagen I (Gibco) diluted 100-fold in 0.02 N acetic acid, and incubated at 37 °C for 1 h and washed 3 times with PBS. According to the protocol optimized by [Tasnim et al. (2019)], iKCs was firstly seeded at a density of 14,000 per well on 96-well plate with Advanced DMEM (plus supplements) containing 5 % FBS. On the following day, iHeps were added at a density of 35,000 per well in Williams’ Medium E (plus supplements) (iHep: iKCs ratio = 2.5: 1). […]"}, "IL-6 [6]": {"test_system": "IL-6", "parameters": "method as in ref Hassan et al. 2016; Giustarini et al. 2019; Higuchi et al. 2012; Dik et al. 2018", "settings": "ref Hassan et al. 2016; Giustarini et al. 2019; Higuchi et al. 2012; Dik et al. 2018; cited from earlier work"}, "TNFα": {"test_system": "TNFα", "assay": "TNFα ELISA in HIVIL (iKCs co-cultured with iHeps, LPS, 48 hr)", "format": "cell-based, human", "settings": "low dose 3.125 μM and 6.25 μM", "text": "Human iPSC cell line iPS (IMR90)-4 was purchased from WiCell Research Institute (Madison, WI), and maintained with a feeder-free method according to the instruction from […] Technologies (Vancouver, BC, Canada). The protocol of differentiation towards iKCs and iHeps as described previously with slight modification ([Tasnim et al., 2019]; [Cai et al., 2012]), respectively. […] More details are provided in Supplementary Methods. After differentiation, iKCs was harvested using 0.05 % trypsin-EDTA (Gibco, Waltham, Massachusetts, USA), while iHeps were dissociated with TrypLE^TM (Gibco). iHep suspension was further filtered through a 40 µm cell strainer to remove extracellular matrix clumps. Cell suspension was centrifuged at 1000 rpm for 5 min. For co-culture set up, tissue culture plates were coated with Rat tail collagen I (Gibco) diluted 100-fold in 0.02 N acetic acid, and incubated at 37 °C for 1 h and washed 3 times with PBS. According to the protocol optimized by [Tasnim et al. (2019)], iKCs was firstly seeded at a density of 14,000 per well on 96-well plate with Advanced DMEM (plus supplements) containing 5 % FBS. On the following day, iHeps were added at a density of 35,000 per well in Williams’ Medium E (plus supplements) (iHep: iKCs ratio = 2.5: 1). This reflects the physiological ratio of these cells in vivo under inflammatory conditions ([Tasnim et al., 2021]). Fresh media containing drugs was applied to co-cultures the next day. 50,000 cells were seeded to establish iHeps monoculture. THP-1 cells were kindly obtained from Dr. Eliza Fong and cultured as described by [Zeng et al. (2015)]. Details provided in Supplementary Methods.\nas §1\nas §2, with “Normalization to viability per well ensures that any changes in cytokines are not due to changes in cell numbers upon drug treatment and normalization to DMSO+LPS allows better comparison between different batches of experiments.” left out"}, "IL-10": {"test_system": "IL-10", "assay": "IL-10 ELISA in HIVIL (iKCs co-cultured with iHeps, LPS, 48 hr)", "format": "cell-based, human", "settings": "result in words", "text": "as §3, with “The re-optimized protocol to generate iKCs is discussed in Results section.” left out, “PBS.” for “PBS. According to the protocol optimized by [Tasnim et al. (2019)], iKCs was firstly seeded at a density of 14,000 per well on 96-well plate with Advanced DMEM (plus supplements) containing 5 % FBS. On the following day, iHeps were added at a density of 35,000 per well in Williams’ Medium E (plus supplements) (iHep: iKCs ratio = 2.5: 1).”\nEnzyme-linked immunosorbent assay (ELISA) for measurement of cytokines: Interleukin-6 (IL-6), interleukin-10 (IL-10) and tumor necrosis factor alpha (TNFα) levels in the media were measured using the corresponding human-based ELISA kits (Abcam, Cambridge, United Kingdom) according to manufacturer’s instructions. […]"}},
  "note": "Several values for one entry are separate records, joined by “and”; a condition that tells them apart may be missing. Equal entries are not always repeated.",
  "data": [
    {"smiles": "N[C@@H]1[C@H]2CN(c3nc4c(cc3F)c(=O)c(C(=O)O)cn4-c3ccc(F)cc3F)C[C@@H]12", "note": "[TVX, Trovafloxacin]", "values": [
      {"measurement": "viability at 48 hr", "setting": "[1]", "result": "63.4 ± 5", "unit": "%"},
      {"measurement": "IC50", "setting": "[2]; Homo sapiens, 48 h, read-out: IC50: viability", "result": 87.7, "unit": "µM"},
      {"measurement": "viability profiles among iHeps, iKCs and HIVIL", "setting": "[2]; comparison of mono-cultures and co-culture", "result": "similar"},
      {"measurement": "increase in IL-6", "setting": "IL-6 [3]; 6.25 μM", "result": 1.2, "unit": "fold"},
      {"measurement": "inhibition of IL-6 production", "setting": "IL-6 [3]; higher concentrations", "result": "80% and 97%"},
      {"measurement": "DILIrank", "setting": "[4]", "result": "most"},
      {"measurement": "viability", "setting": "[5]", "result": 53.7, "unit": "%"},
      {"measurement": "Reported in-vivo (murine) responses: IL-6", "setting": "IL-6 [6]", "result": "IL-6↑"},
      {"measurement": "TNFα induction", "setting": "TNFα", "result": 1.5, "unit": "fold"},
      {"measurement": "IL-10 response", "setting": "IL-10", "result": "dose-dependent IL-10 decrease"}
    ]}
  ]
}
